Laboratory results reported in patent publication US20230117034A1, “PYRAZOLOTRIAZINES” (Bayer Aktiengesellschaft, priority 2019, published 2023).
pIC50: −log10 of the molar value.

What was measured:
CDK2/CycE = biological target: T1, CDK2/CycE (Homo sapiens, UniProt P24941); experiment: CDK2/CycE kinase assay (TR-FRET, 2 mM ATP); type: biochemical; details: 2 mM ATP (high ATP); median; read-out: CDK2/CyclinE, 2 mM ATP (high ATP), IC50 (median)
T1 construct: purchased ProQinase GmbH (Freiburg, Germany); host or cells: insect cells (Sf9)
Outline: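 GST-tagged human CDK2 and CycE from Sf9 cells, about 10 ng/ml, pre-incubated 15 min at 22 °C with compound in Tris/HCl pH 8.0 buffer. Reaction with 2 mM ATP and 0.75 µM biotinylated peptide for 25 min at 22 °C. Phospho-RB antibody TR-FRET (665/620 nm ratio) read after 1 h; data normalised to no-inhibitor and no-enzyme controls.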

[1] = biological target: T2, CDK12 (nuclear staining in CAL-120 cells) (Homo sapiens, UniProt Q9NYV4); experiment: CDK12 nuclear protein level: immunofluorescence/high content analysis (CAL-120); type: cell-based; details: for DC50: CAL-120 cells, 24 h, immunofluorescence, 50% reduction of nuclear CDK12 staining intensity, median, read-out: CDK12 degradation IF, DC50- [mol/l] (median); for (IC50 CDK12 high ATP) to (Degradation DC50 CDK12) ratio: ratio of IC50 CDK12 high ATP kinase assay to DC50 CDK12 degradation (IF, CAL-120)
T2 construct: endogenous in cells; host or cells: CAL-120 human breast cancer cells (DSMZ ACC 459)
Outline: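 CAL-120 cells were treated with compound for 24 h at 37 °C, fixed with PFA and immunostained for CDK12. Nuclear CDK12 intensity was quantified by automated image analysis and normalized to DMSO and control. DC50 is the concentration giving 50% reduction of nuclear staining.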

[2] = test system: CAL-120, human breast adenocarcinoma cells; experiment: Proliferation assay CAL-120 (crystal violet, 4 days); type: cell-based; details: Homo sapiens, CAL-120, 96 h, CAL-120 cells, median, read-out: Prolif-CAL-120, IC50-[mol/l] (median)
Outline: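 Following a 24 h attachment in 10% fetal calf serum medium, cells receive test substance over 0.01-10 µmol/L for 4 days. Dye retained by fixed cells is eluted and read at 595 nm; cell number change is referenced to day-0 and untreated wells.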

T2 sequence (Q9NYV4 whole entry): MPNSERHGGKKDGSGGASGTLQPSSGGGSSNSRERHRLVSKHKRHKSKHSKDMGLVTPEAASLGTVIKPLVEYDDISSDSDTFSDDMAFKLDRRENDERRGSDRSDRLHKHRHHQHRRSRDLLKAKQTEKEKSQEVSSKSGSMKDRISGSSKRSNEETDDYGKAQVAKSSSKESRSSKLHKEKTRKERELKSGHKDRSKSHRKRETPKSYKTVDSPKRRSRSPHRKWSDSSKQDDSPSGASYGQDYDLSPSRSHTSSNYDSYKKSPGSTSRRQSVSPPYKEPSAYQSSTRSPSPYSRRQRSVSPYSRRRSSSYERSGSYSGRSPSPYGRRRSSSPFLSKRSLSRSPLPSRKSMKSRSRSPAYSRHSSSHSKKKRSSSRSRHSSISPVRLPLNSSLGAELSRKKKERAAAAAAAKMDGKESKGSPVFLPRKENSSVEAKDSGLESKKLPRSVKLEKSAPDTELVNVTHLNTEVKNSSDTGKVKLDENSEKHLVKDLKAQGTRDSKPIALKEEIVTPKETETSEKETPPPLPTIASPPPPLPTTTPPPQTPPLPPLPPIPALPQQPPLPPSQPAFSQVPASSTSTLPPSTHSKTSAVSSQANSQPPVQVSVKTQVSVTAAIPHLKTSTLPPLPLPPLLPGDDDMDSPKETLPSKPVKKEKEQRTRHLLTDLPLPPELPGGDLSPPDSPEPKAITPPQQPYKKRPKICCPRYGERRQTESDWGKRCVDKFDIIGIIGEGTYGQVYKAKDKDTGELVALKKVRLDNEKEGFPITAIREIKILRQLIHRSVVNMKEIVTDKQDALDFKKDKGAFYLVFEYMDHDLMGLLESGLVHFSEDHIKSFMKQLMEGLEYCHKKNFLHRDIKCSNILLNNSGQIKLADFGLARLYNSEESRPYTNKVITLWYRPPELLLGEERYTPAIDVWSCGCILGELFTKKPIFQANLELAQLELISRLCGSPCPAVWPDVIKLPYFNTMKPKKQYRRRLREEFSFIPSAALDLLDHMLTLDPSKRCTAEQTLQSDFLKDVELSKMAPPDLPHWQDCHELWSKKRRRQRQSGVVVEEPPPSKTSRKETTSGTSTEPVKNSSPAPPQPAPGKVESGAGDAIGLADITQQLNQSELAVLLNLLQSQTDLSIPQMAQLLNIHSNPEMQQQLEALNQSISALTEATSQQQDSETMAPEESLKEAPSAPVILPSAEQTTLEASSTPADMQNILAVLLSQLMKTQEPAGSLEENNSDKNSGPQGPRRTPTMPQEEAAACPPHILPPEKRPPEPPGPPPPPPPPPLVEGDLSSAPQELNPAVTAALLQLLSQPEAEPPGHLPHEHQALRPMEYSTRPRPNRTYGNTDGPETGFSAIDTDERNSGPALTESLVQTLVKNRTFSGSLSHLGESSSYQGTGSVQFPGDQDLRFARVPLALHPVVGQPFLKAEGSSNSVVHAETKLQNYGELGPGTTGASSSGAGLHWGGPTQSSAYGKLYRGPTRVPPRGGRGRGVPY
T2 sequence (O75909 whole entry partner): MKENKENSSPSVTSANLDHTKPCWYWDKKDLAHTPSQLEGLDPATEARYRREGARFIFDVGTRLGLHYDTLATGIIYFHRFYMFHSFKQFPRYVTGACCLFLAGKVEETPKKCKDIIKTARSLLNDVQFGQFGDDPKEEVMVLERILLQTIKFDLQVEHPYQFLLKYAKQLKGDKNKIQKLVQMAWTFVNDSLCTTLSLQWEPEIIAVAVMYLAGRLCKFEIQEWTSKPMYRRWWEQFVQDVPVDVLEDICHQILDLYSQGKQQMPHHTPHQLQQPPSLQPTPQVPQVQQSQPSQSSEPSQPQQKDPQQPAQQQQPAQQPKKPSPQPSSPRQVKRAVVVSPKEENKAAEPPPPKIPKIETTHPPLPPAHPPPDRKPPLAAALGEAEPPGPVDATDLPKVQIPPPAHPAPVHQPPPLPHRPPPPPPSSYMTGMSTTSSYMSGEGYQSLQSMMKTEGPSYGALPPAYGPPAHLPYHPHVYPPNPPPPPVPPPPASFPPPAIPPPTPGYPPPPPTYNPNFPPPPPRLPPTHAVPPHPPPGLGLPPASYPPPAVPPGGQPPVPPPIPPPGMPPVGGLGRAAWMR

SMILES | pIC50 (CDK2/CycE) | DC50 [1] [nM] | (IC50 CDK12 high ATP) to (Degradation DC50 CDK12) ratio [1] | pIC50 [2]
CC(C)c1cnn2c(NCc3ncc(-c4ccccc4)[nH]3)nc(N3CCCCC3)nc12 [Example 36, N-[(5-phenyl-1H-imidazol-2-yl)methyl]-2-(piperidin-1-yl)-8-(propan-2-yl)pyrazolo[1,5-a][1,3,5]triazin-4-amine] | < 4.70 | 86.5 | >231 | 
CN(C)CCOc1nc(NCc2nc3ccccc3[nH]2)n2ncc(Br)c2n1 [Example 399, N-[(1H-benzimidazol-2-yl)methyl]-8-bromo-2-[2-(dimethylamino)ethoxy]pyrazolo[1,5-a][1,3,5]triazin-4-amine] | < 4.70 | 66 | >303 | 7.08
Brc1cnn2c(NCc3nnc(-c4cccnc4)[nH]3)nc(N3CCOCC3)nc12 [Example 53, 8-bromo-2-(morpholin-4-yl)-N-{[5-(pyridin-3-yl)-4H-1,2,4-triazol-3-yl]methyl}pyrazolo[1,5-a][1,3,5]triazin-4-amine] | 5.77 | 47.2 | 43 | 6.97
NCCOCCOCCNc1nc(NCc2nc3ccccc3[nH]2)n2ncc(Br)c2n1 [Example 412, N2-{2-[2-(2-aminoethoxy)ethoxy]ethyl}-N4-[(1H-benzimidazol-2-yl)methyl]-8-bromopyrazolo[1,5-a][1,3,5]triazine-2,4-diamine] | < 4.70 | 77.4 | >74 | 5.95
Cc1cnn2c(NCc3nc4ccccc4[nH]3)nc(N(C)CC(C)(C)O)nc12 [Example 397, 1-[(4-{[(1H-benzimidazol-2-yl)methyl]amino}-8-methylpyrazolo[1,5-a][1,3,5]triazin-2-yl)(methyl)amino]-2-methylpropan-2-ol] | 4.76 | 28.1 | >623 | 6.77
CC(C)COc1nc(NCc2nc3ccccc3[nH]2)n2ncc(Br)c2n1 [Example 409, N-[(1H-benzimidazol-2-yl)methyl]-8-bromo-2-(2-methylpropoxy)pyrazolo[1,5-a][1,3,5]triazin-4-amine] | 4.89 | 29.8 | >531 | 7.00
Fc1ccc2[nH]c(CNc3nc(N4CCOCC4)nc4c(C(F)(F)F)cnn34)nc2c1F [Example 426, N-[(4,5-difluoro-1H-benzimidazol-2-yl)methyl]-2-(morpholin-4-yl)-8-(trifluoromethyl)pyrazolo [1,5-a][1,3,5]triazin-4-amine] | 4.76 | 0.751 | 32 | 8.45
CC(C)c1cnn2c(NCc3ncc(-c4ccccc4)[nH]3)nc(N(C)CC(C)(C)O)nc12 [Example 35, 2-methyl-1-{methyl[4-{[(5-phenyl-1H-imidazol-2-yl)methyl]amino}-8-(propan-2-yl)pyrazolo[1,5-a][1,3,5]triazin-2-yl]amino}propan-2-ol] | 5.77 | 27.3 | 81 | 
CCNc1nc(NCc2nnc(-c3ccccc3)[nH]2)n2ncc(C(C)C)c2n1 [Example 38, N^2-ethyl-N^4-[(5-phenyl-4H-1,2,4-triazol-3-yl)methyl]-8-(propan-2-yl)pyrazolo[1,5-a][1,3,5]triazine-2,4-diamine] | 5.08 | 37.2 | >153 | 
CC(C)c1cnn2c(NCc3nnc(-c4ccccc4)[nH]3)nc(N3CCOCC3)nc12 [Example 33, 2-(morpholin-4-yl)-N-[(5-phenyl-4H-1,2,4-triazol-3-yl)methyl]-8-(propan-2-yl)pyrazolo[1,5-a][1,3,5]triazin-4-amine] | 5.08 | 67.8 | 77 | 

Second part, the compound after the results:

pIC50 (CDK2/CycE) | DC50 [1] [nM] | (IC50 CDK12 high ATP) to (Degradation DC50 CDK12) ratio [1] | pIC50 [2] | SMILES
4.79 | 44.8 | >446 | 7.10 | Brc1cnn2c(NCc3nc4ccccc4[nH]3)nc(OC3CCNCC3)nc12 [Example 411, N-[(1H-benzimidazol-2-yl)methyl]-8-bromo-2-[(piperidin-4-yl)oxy]pyrazolo[1,5-a][1,3,5]triazin-4-amine]
5.97 | 3.43 | 224 | 8.20 | N#Cc1cccc(-c2nnc(CNc3nc(N4CCOCC4)nc4c(Br)cnn34)[nH]2)c1 [Example 55, 3-[5-({[8-bromo-2-(morpholin-4-yl)pyrazolo[1,5-a][1,3,5]triazin-4-yl]amino}methyl)-4H-1,2,4-triazol-3-yl]benzonitrile]
5.98 | 5.26 | 104 | 7.90 | OC[C@@H]1CCCCN1c1nc(NCc2nc3ccccc3[nH]2)n2ncc(Br)c2n1 [Example 59, [(2S)-1-(4-{[(1H-benzimidazol-2-yl)methyl]amino}-8-bromopyrazolo[1,5-a][1,3,5]triazin-2-yl)piperidin-2-yl]methanol]
< 4.70 | 17.8 | >720 | 7.91 | FC(F)n1cc(-c2cnn3c(NCc4nc5cc(Cl)c(Cl)cc5[nH]4)nc(N4CCOCC4)nc23)cn1 [Example 423, N-[(5,6-dichloro-1H-benzimidazol-2-yl)methyl]-8-[1-(difluoromethyl)-1H-pyrazol-4-yl]-2-(morpholin-4-yl)pyrazolo[1,5-a][1,3,5]triazin-4-amine]
< 4.70 | 4.68 | 125 | 8.58 | Fc1ccc2[nH]c(CNc3nc(N4CCOCC4)nc4c(-c5cncs5)cnn34)nc2c1F.O=C(O)C(F)(F)F [Example 442, trifluoroacetic acid N-[(4,5-difluoro-1H-benzimidazol-2-yl)methyl]-2-(morpholin-4-yl)-8-(1,3-thiazol-5-yl)pyrazolo[1,5-a][1,3,5]triazin-4-amine]
5.02 | 7.03 | 32 | 8.11 | CN(CC(C)(C)O)c1nc(NCc2nc3c(F)c(F)ccc3[nH]2)n2ncc(C(F)(F)F)c2n1 [Example 402, 1-{[4-{[(4,5-difluoro-1H-benzimidazol-2-yl)methyl]amino}-8-(trifluoromethyl)pyrazolo[1,5-a][1,3,5]triazin-2-yl](methyl)amino}-2-methylpropan-2-ol]
< 4.82 | 42.8 | >467 |  | CC(C)c1cnn2c(NCc3nnc(-c4ccccc4)[nH]3)nc(N3CCN(C)CC3)nc12 [Example 37, 2-(4-methylpiperazin-1-yl)-N-[(5-phenyl-4H-1,2,4-triazol-3-yl)methyl]-8-(propan-2-yl)pyrazolo[1,5-a][1,3,5]triazin-4-amine]
< 4.70 | 26.1 | >765 | 6.45 | COc1cccc2nc(CNc3nc(N4CCN(C)CC4)nc4c(-c5nccs5)cnn34)[nH]c12 [Example 416, N-[(7-methoxy-1H-benzimidazol-2-yl)methyl]-2-(4-methylpiperazin-1-yl)-8-(1,3-thiazol-2-yl)pyrazolo[1,5-a][1,3,5]triazin-4-amine]
< 4.70 | 4.23 | 941 | 8.27 | Clc1cc2nc(CNc3nc(N4CCOCC4)nc4c(-c5cncs5)cnn34)[nH]c2cc1Cl [Example 443, N-[(5,6-dichloro-1H-benzimidazol-2-yl)methyl]-2-(morpholin-4-yl)-8-(1,3-thiazol-5-yl)pyrazolo[1,5-a][1,3,5]triazin-4-amine]
< 4.70 | 4.32 | >4626 | 8.05 | CN1CCN(c2nc(NCc3nc4c(F)c(F)ccc4[nH]3)n3ncc(C4CC4(F)F)c3n2)CC1 (stereo not drawn) [Example 429, N-[(4,5-difluoro-1H-benzimidazol-2-yl)methyl]-8-(2,2-difluorocyclopropyl)-2-(4-methylpiperazin-1-yl)pyrazolo[1,5-a][1,3,5]triazin-4-amine]
5.68 | 41.4 | 113 |  | CC(C)c1cnn2c(NCc3nnc(-c4ccccc4)[nH]3)nc(N(C)CC(C)(C)O)nc12 [Example 39, 2-methyl-1-{methyl[4-{[(5-phenyl-4H-1,2,4-triazol-3-yl)methyl]amino}-8-(propan-2-yl)pyrazolo[1,5-a][1,3,5]triazin-2-yl]amino}propan-2-ol]
5.21 | 12.7 | >449 |  | CCNc1nc(NCc2ncc(-c3ccccc3)[nH]2)n2ncc(C(C)C)c2n1 [Example 34, N^2-ethyl-N^4-[(5-phenyl-1H-imidazol-2-yl)methyl]-8-(propan-2-yl)pyrazolo[1,5-a][1,3,5]triazine-2,4-diamine]
